Measurements taken from patent US20240191211A1, “BIOLUMINESCENCE-TRIGGERED PHOTOCATALYTIC LABELING” (Promega Corporation, priority 2022, published 2024).
Values joined by “and” are separate entries in the source; they are usually repeats but may differ in a detail not shown here. Equal values may be shown once.

Legend:
[1] = test system: K562 cell lysate depleted of biotinylated proteins; assay: Photocatalytic protein labeling with azide-biotin analogs driven by HT178-cpNLuc-179:Ir-9049 in K562 lysate; format: biochemical; details: for light-independent background: 45 minutes incubation; for light-dependent background: LED 455 nm 10 minutes versus bioluminescence 20 minutes
Text: To evaluate labeling efficiency, samples were collected, resolved on SDS-PAGE, transferred to a nitrocellulose membrane, and analyzed as described in Example 1. Unlike diazirene, light independent as well as light-dependent background was apparent for both LED and bioluminescence. […] These longer-lived intermediates can diffuse further before being quenched by water resulting in overall greater labeling radius and increased light-dependent background.
The aryl-azide-biotin analogs were further evaluated for efficiency and specificity of bioluminescence-triggered photocatalytic protein labeling as well as light-independent background (FIG. 21D). […] Samples were then collected, resolved on SDS-PAGE, transferred to a nitrocellulose membrane, and analyzed as described in Example 1. […] In addition, several substitutions to the phenyl ring increased labeling specificity to different extent likely by impeding the generation-kinetics and/or lifetime of the reactive intermediates resulting with an overall smaller labeling radius.
Subsequently, LED-triggered photocatalytic labeling of the proximal HT178-cpNLuc-179 was detected for all three analogs albeit with high light-dependent background. […] In addition, lifetime of photogenerated reactive intermediates resulted with a range of labeling specificities that would be useful for different applications designed to label a specific protein versus a neighboring environment.
The structures of the vinyl-naphthyl-azide-biotins and vinyl-quinoline-azide-biotins are shown in FIG. 26A, and their syntheses are included in Example 13. Absorbance profiles for 200 μM activatable labels in 2% DMSO were monitored on a SPARK multimode plate reader (FIG. 26 B-C). […] The naphthyl-azide analogs were further evaluated for their capacity to undergo bioluminescence-triggered photocatalytic protein labeling as well as for their light-dependent, light-independent, and catalyst-independent backgrounds (FIG. 26D). […] Bioluminescence was induced upon treatment with 100 μM fluorofurimazine for 20 minutes. To evaluate labeling efficiencies, samples were collected, resolved on SDS-PAGE, transferred to nitrocellulose membranes, and analyzed as described in Example 1. […] Furthermore, a methyl substitution on the vinyl group designed to inhibit Michael addition reduced background, especially for 9615, and increased labeling specificity. This reduced background was generally associated with a blue-shifted absorbance relative to the equivalent vinyl-naphthyl-azide analog.

[2] = Absorbance profile of photoreactive-biotins; format: physicochemical
Description: Absorbance profiles for 4 mM phenyl-diazirine-biotin and 20-fold lower concentration of phenyl-azide-biotin (i.e., 200 µM) in 8% or 1% DMSO, respectively, were monitored on a SPARK multimode plate reader (FIG. 20B).
Experiments were conducted during development of embodiments herein to explore structural modifications to the phenyl-azide moiety that could decrease the lifetime of its photogenerated intermediates thereby reducing light-dependent background and increasing labeling specificity. Modifications causing red shift absorbance and subsequently lower triplet state energy thereby enabling more efficient bioluminescence-triggered photocatalytic activation were also explored. […]
The structures of the vinyl-naphthyl-azide-biotins and vinyl-quinoline-azide-biotins are shown in FIG. 26A, and their syntheses are included in Example 13. Absorbance profiles for 200 μM activatable labels in 2% DMSO were monitored on a SPARK multimode plate reader (FIG. 26 B-C). […] The naphthyl-azide analogs were further evaluated for their capacity to undergo bioluminescence-triggered photocatalytic protein labeling as well as for their light-dependent, light-independent, and catalyst-independent backgrounds (FIG. 26D). […] To evaluate labeling efficiencies, samples were collected, resolved on SDS-PAGE, transferred to nitrocellulose membranes, and analyzed as described in Example 1. […]

DNA and RNA = assay: LED-triggered singlet oxygen-dependent labeling of DNA and RNA; format: biochemical; details: compared to Ir-9049 driven activation of vinyl-naphthyl-azides and vinyl-quinoline-azides
Description: Plates remained in the dark (control) or irradiated at 455 nm (2% LED; ˜1.6 W) for 20 minutes using Efficiency Aggregators biophotoreactor. To evaluate covalent crosslinking efficiencies, reactions were cleaned from non-crosslinked activatable labels using Zeba column (ThermoFisher) before being spotted on nitrocellulose membranes using a slot blot apparatus. Membranes were blocked with 5% BSA (Promega) in TBST for 1 hour at room temperature and then incubated overnight at 4° C. with anti-biotin antibody (Invitrogen) in TBST. Next day, membranes were washed three times with TBST and then incubated for an hour with a secondary anti-goat-HRP-antibody (Jackson laboratories). Following three washes in TBST, membranes were treated with ECL substrate (Promega) and scanned on the chemiluminescence channel to detect DNA or RNA labeled with biotin.

[3] = test system: K562 cell lysate depleted of biotinylated proteins; assay: Bioluminescence-triggered photocatalytic protein labeling with diazirine-biotin in K562 lysate; format: biochemical
Description: The two fusions orientations were further tethered to chloroalkane-catalyst conjugates and compared for their capacity to drive bioluminescence-triggered photocatalytic protein labeling (FIG. 16B). […] Bioluminescence was induced upon treatment with 10× fluorofurimazine at a final concentration of 100 µM while control wells remained untreated. Following a 15 minutes incubation, samples were collected, resolved on SDS-PAGE, transferred to a nitrocellulose membrane, and analyzed as described in Example 1. […]
Reactions comprising 100 μM diazirine-biotin, 0.1 mg/mL K562 cell lysate depleted of biotinylated proteins, and 60 nM conjugate were assembled in TBS pH 7.5 within wells of a white 96-well plate. […] Following a 15 minutes incubation, samples were collected, resolved on SDS-PAGE, transferred to a nitrocellulose membrane, and analyzed as described in Example 1. […]
This example summarizes the optimization of the bioluminescent photocatalytic system that provided an overall 900-fold increase in bioluminescence-triggered photocatalytic protein labeling (FIG. 18). […] Following a 20-minutes incubation, samples were collected, resolved on SDS-PAGE, transferred to a nitrocellulose membrane, and analyzed as described in Example 1 (FIG. 18A). […]

FKBP-HiBiT = assay: Photocatalytic labeling upon complementation of FKBP-HiBiT with LgBiT-HaloTag:Ir-9049; format: biochemical; details: HEK293 cell lysate; LED, furimazine or fluorofurimazine
Description: HEK293 cell lysate with estimated expression of 2000 nM FKBP-HiBiT was serially diluted into control HEK293 cell lysate to generate 4× lysate solutions with expression levels of 960 nM, 480 nM, 240 nM, and […] while maintaining constant concentration of total proteins. […] Following treatment with 10× diazirine-biotin at a final concentration of […], the UV-transparent plates were subjected to 455 nm radiation at 0-3.2 W for 15 min (Efficiency Aggregators biophotoreactor), and the white plate were further treated for 30 minutes with either furimazine or fluorofurimazine at a final concentration of 100 µM while control wells remained untreated. Samples were then collected, resolved on SDS-PAGE, transferred to a nitrocellulose membrane, and analyzed as described in Example 1. Light-dependent labeling of both LgBiT-HaloTag and FKBP-HiBiT were detected upon radiation or treatment with either furimazine or fluorofurimazine.

In the case of `C/C(=C\C(=O)NCCOCCOCCOCCOCCNC(=O)CCCC[C@@H]1SC[C@@H]2NC(=O)N[C@@H]21)c1ccc(N=[N+]=[N-])c(C#N)c1` [Compound 9422, N-((E)-18-(4-azido-3-cyanophenyl)-16-oxo-3,6,9,12-tetraoxa-15-azanonadec-17-en-1-yl)-5-((3aS,4S,6aR)-2-oxohexahydro-1H-thieno[3,4-d]imidazol-4-yl)pentanamide], the light-independent background [1] was “significantly decreased” and the light-dependent background [1] was “significantly reduced light-dependent background”.

For `[N-]=[N+]=Nc1ccc2cc(C(=O)NCCOCCOCCOCCOCCNC(=O)CCCC[C@@H]3SC[C@@H]4NC(=O)N[C@@H]43)ccc2c1` [Compound 9043], the “absorbance λmax” value ([2]; 200 μM in 2% DMSO) was 255 nm and 305 nm and the light-independent background [1] was “significantly decreased”.

For `[N-]=[N+]=Nc1ccc(C(=O)NCCOCCOCCOCCOCCNC(=O)CCCC[C@@H]2SC[C@@H]3NC(=O)N[C@@H]32)c(O)c1` [Compound 9046], the light-independent background [1] was “significantly decreased”.

In the case of `O=C(NCCOCCOCCCCCCCl)OCCOCCOCCOCCNC(=O)c1ccc2c(c1)C(=O)OC21c2ccc(O)c(Br)c2Oc2c1ccc(O)c2Br` [PS-9850], the “nucleic acid labeling via singlet oxygen generation” value (DNA and RNA) was “lower efficiencies”.

For `C/C(=C\C(=O)NCCOCCOCCOCCOCCNC(=O)CCCC[C@@H]1SC[C@@H]2NC(=O)N[C@@H]21)c1ccc(N=[N+]=[N-])cc1` [Compound 9162], the red shift absorbance ([2]; aryl-azide analogs compared to phenyl-azide-biotin 9069) was 20 nm, the light-independent background [1] was “significantly decreased” and the light-dependent background [1] was “highest light-dependent background”.

For `Nc1cccc(-c2cn3c(=O)c(Cc4ccco4)nc-3c(Cc3ccccc3F)[nH]2)c1F` [fluorofurimazine], the “increase in total light output” value ([3]; filtered luminescence 610 nm/LP accumulated over 20 minutes, versus furimazine) was 5 fold, the “increase in protein labeling” value ([3]; relative to preceding optimization step, 20 minutes) was 5 fold and the “labeling of LgBiT-HaloTag and FKBP-HiBiT” value (FKBP-HiBiT) was “Highest labeling”.

With `[N-]=[N+]=Nc1ccc(C(=O)NCCOCCOCCOCCOCCNC(=O)CCCC[C@@H]2SC[C@@H]3NC(=O)N[C@@H]32)cc1` [Compound 9069] the “labeling of proximal model protein and background” value ([1]; LED or bioluminescence, NanoLuc-HaloTag:Ir-9049 or HT178-cpNLuc-179:Ir-9049) was “relatively high background”.
